From patent US20080160106A1, “Novel Uses for Proton Pump Inhibitors” (Istituto Superiore de Sanita, priority 2004, published 2008)
Entries after “also recorded” stand apart in the source; their conditions may differ.

Tests used:
human melanoma cells [1] = experiment: In vivo effects of omeprazole and cisplatin on tumour growth in the human/SCID mouse model; design: species or system CB.17 scid/scid mice; settings: cisplatin alone, single dose 5 mg/kg i.p.
Method: Animals: CB.17 SCID/SCID female mice (Harlan, Italy) were used at 4-5 weeks of age and were kept under specific pathogen-free conditions. SCID mice were housed in microisolator cages, and all food, water and bedding were autoclaved prior to use.
Transplantation and growth of human tumours in SCID mice: Each mouse was injected subcutaneously (s.c.) into the right flank with 3×10^6 cells resuspended in 0.2 ml RPMI 1640 supplemented with 10% FCS. After transplantation, the size of each tumour was measured using callipers. The tumour weight was estimated according to Geran et al. (1972) using the formula:
Tumour weight (mg)=length (mm)×width^2 (min)/2.
Mice treatment: Omeprazole (Astra-Zeneca, Italy) and pantoprazole (Sigma Tau) were administered at a dose of 75 mg/kg by gavage as previously described (Watson and Smith, 2001), as a suspension in PBS1X. Lansoprazole (Pharmacia, Sweden) and rabeprazole (Janssen) were administered at a dose of 25 mg/kg by gavage as previously described (Watson and Smith, 2001), as a suspension in PBS1X.
Cisplatin (Aventis, France) was administered intraperitoneally (i.p.) at a dose of 5 mg/kg (Son and Huang 1994).
Other: unless otherwise specified, other parameters are as set out in Examples 1 and 2, above.

human melanoma cells [2] = experiment: Cytotoxic effect of omeprazole in vitro, dose response curve (Trypan blue exclusion; Live/Dead assay); type: cell-based; settings: 0.01-10 μg/ml
Method: Tumour cells: Human tumour cells (24 melanoma cell lines, 2 colon adenocarcinoma cell lines and 2 breast cancer cell lines) obtained from a primary tumour were cultured in buffered (with bicarbonate) or not buffered (without bicarbonate) RPMI 1640 medium enriched with 10% foetal bovine serum and antibiotics in a humidified 5% C02 and 95% air atmosphere.
Dose response curves: Tumour cells, growing in suspension, were plated at 1.5×10^5/ml, in 24 wells cell culture plate (Costar). Tumour cells growing in adherence were plated at 3×10^4 cells/well in 24 wells cell culture plate. Each dilution was tested at least in triplicate in each experiment.
Cytotoxicity assay: Cytotoxicity was evaluated using the Trypan blue exclusion method after treatment with each chemotherapeutic drug. Briefly, after treatment, cells growing in suspension were collected, centrifuged and resuspended in PBS1X. Alternatively, cells growing in adherence were collected, pooling both adherent (live) after trypsinisation and in suspension (assumed dead) cells. […] After 5 minutes, cells were loaded on a haemocytometer (Neubauer) and both live (not stained) and dead (blue stained) cells were counted under a light microscope. Cell viability was assessed calculating the percentage of dead cells using the formula: […]
Live/Dead Viability/Cytotoxicity Assay®. This assay (Molecular Probes, OR, USA) provides a two colour fluorescence cell viability assay that is based on the simultaneous determination of live and dead cells with two probes (Calcein AM and Ethidium homodimer 1) that measure two recognised parameters of cell viability—intracellular esterase activity and plasma membrane integrity. Live cells were distinguished by the presence of ubiquitous intracellular esterase activity, determined by the enzymatic conversion of the virtually non-fluorescent cell permeant Calcein AM to the intensely fluorescent calcein (ex/em 495 nm/515 nm), which is retained in the cell. […] The samples were analysed with a FACScan cytometer (Becton Dickinson) equipped with a 488 argon laser. […]

[3] = system: human melanoma cells resistant to cisplatin; experiment: Effects of omeprazole on cisplatin resistance in vitro (cisplatin dose response curve); type: cell-based; settings: without cisplatin
Method: Cytotoxicity assay: Cytotoxicity was evaluated using the Trypan blue exclusion method after treatment with each chemotherapeutic drug. Briefly, after treatment, cells growing in suspension were collected, centrifuged and resuspended in PBS1X. Alternatively, cells growing in adherence were collected, pooling both adherent (live) after trypsinisation and in suspension (assumed dead) cells. Cells were thus centrifuged (10 minutes at 1500 rpm) and resuspended in PBS1X. An aliquot of the cell suspension was diluted 1:1 (v/v) with 0.4% trypan blue. After 5 minutes, cells were loaded on a haemocytometer (Neubauer) and both live (not stained) and dead (blue stained) cells were counted under a light microscope. Cell viability was assessed calculating the percentage of dead cells using the formula:
% dead cells=(no. dead cells/no. dead cells+no. live cells)×100.
Drugs: The PPIs were as in Example 1, above. Cisplatin (Aventis, France) was resuspended in PBS1X at a stock concentration of 1 mg/ml, and stored at −20° C. Both stock solutions were thawed immediately before use and not frozen again. 5-Fluorouracil (Teva Pharma, Holland) was supplied in the form of a solution at a concentration of 50 mg/ml, and was stored at r.t. as indicated by the supplier. […]

Row | Compound | tumour growth (human melanoma cells [1]) | cytotoxic effect (% dead cells) (human melanoma cells [2]; buffered neutral medium pH 7.2) | cytotoxic effect (% dead cells) (human melanoma cells [2]; not buffered, slightly acidic medium) | cytotoxic effect of omeprazole alone [3]
1 | N.N.[Cl][Pt][Cl] [cisplatin] | did not show a significant effect on tumour growth; also recorded: almost ineffective if administered alone |  |  | 
2 | COc1ccc2[nH]c([S+]([O-])Cc3ncc(C)c(OC)c3C)nc2c1 (stereo not shown) [omeprazole] |  | no apparent cytotoxic effect | cytotoxic in a dose-dependent manner only for tumour cells grown in slightly acidic medium; also recorded: markedly exerted a cytotoxic effect on tumour cells, in a dose-dependent manner | did not exhibit any cytotoxic effect
